This is an account of results in publication PMC4492732 (Pharmacology Research & Perspectives, 2015).

The target in data set [1] is α7-nicotinic acetylcholine receptor. Conditions: ref Moaddel et al. [2013]; cited from earlier work.
The conditions of data set [2]: rat, ref Leung and Baillie ([1986]), cited from earlier work; for increased spontaneous locomotor activity: postanesthetic recovery phase.
Data set [3] in a line: Incubation of. It is filed as in vitro ADME, Wistar rat. Conditions: 0.1, 1 and 10 μmol/L; 1 mg/mL S9, NADPH; up to 120 min; data not shown.
For data set [4] the following is noted: after i.v. (R,S)-Ket; ref Cohen et al. [1973]; cited from earlier work.
For data set [5] the following is noted: organic phase relative to aqueous phase; ref Leung and Baillie ([1986]); cited from earlier work.
Data set [6] is described as follows: Brain tissue concentrations of Ket and. Conditions: for Brain tissue concentration 10 min / Brain tissue concentration 20 min / Brain tissue concentration 60 min / ratio of brain tissue concentration: plasma concentration 10 min / ratio of brain tissue concentration: plasma concentration 20 min / ratio of brain tissue concentration: plasma concentration 60 min: after i.v. 20 mg/kg (R)-Ket; for Brain tissue concentration 10 min / Brain tissue concentration 20 min / Brain tissue concentration 60 min: n = 3, ±SD.

Data set [7] is described as follows: Plasma concentrations of Ket and. It is filed as in vivo, Wistar rat. The following applies: after i.v. 20 mg/kg (R)-Ket, n = 3, ±SD.
Data set [8] is described as follows: Pharmacokinetic parameters for. It is filed as in vivo, Wistar rat. Conditions: metabolite after single i.v. 40 mg/kg (R,S)-Ket.

One may read the IC50 as the concentration needed to halve the response being measured. In the case of `NC1(c2ccccc2Cl)CCC=CC1=O` (racemic) [(R,S)-DHNK, (R,S)-dehydronorketamine], the 50% inhibitory concentration (IC50) in data set [1] was < 100 nM.

With `CNC1(c2ccccc2Cl)CCCCC1=O` (racemic) [(R,S)-Ket, ketamine, reference compound], in data set [2], the “increased spontaneous locomotor activity” value is 25 min and the duration of anesthesia was 7 min. Further, in data set [3], the “Ket metabolites formed in incubates” value is recorded as “did not contain any known Ket metabolites”. The “time to peak brain tissue concentrations” value in data set [4] is recorded as “less than 1 min”. In addition, the “relative hydrophobicity from partition coefficients” value in data set [5] is on record as “slightly more hydrophobic”.

For the compound `NC1(c2ccccc2Cl)CCCCC1=O` (racemic) [(R,S)-norKet, (R,S)-norketamine], in data set [2], the “increased spontaneous locomotor activity” value was 7 min and the duration of anesthesia is listed as 3 min.

On to `N[C@@]1(c2ccccc2Cl)CCC[C@@H](O)C1=O` [(2R,6R)-HNK, (2R,6R)-hydroxynorketamine], for which, in data set [6], the “Brain tissue concentration 10 min” value is 274 ± 47 ng/g tissue, the “Brain tissue concentration 20 min” value is listed as 191 ± 50 ng/g tissue and the “Brain tissue concentration 60 min” value is 156 ± 34 ng/g tissue. Also, in data set [7], the “Plasma concentration 10 min” value was found to be 345 ± 115 ng/mL, the “Plasma concentration 20 min” value is reported as 316 ± 58 ng/mL and the “Plasma concentration 60 min” value was determined as 200 ± 24 ng/mL.

On to `N[C@@]1(c2ccccc2Cl)CCC[C@H](O)C1=O` [(2R,6S)-HNK], for which, in data set [6], the “ratio of brain tissue concentration: plasma concentration 10 min” value is “(0.6)”, the “Brain tissue concentration 10 min” value is given as 141 ± 20 ng/g tissue, the “ratio of brain tissue concentration: plasma concentration 20 min” value is recorded as “(0.8)” and the “Brain tissue concentration 20 min” value is given as 78 ± 37 ng/g tissue. Moreover, in data set [6], the “ratio of brain tissue concentration: plasma concentration 60 min” value is “(1.4)” and the “Brain tissue concentration 60 min” value is 48 ± 28 ng/g tissue. Also, the “average ratio of brain tissue concentration to plasma concentration” value in data set [6] (after i.v. (S)-Ket or (R)-Ket, respectively, over the first 20 min post administration) is listed as ~1. In data set [7], the “Plasma concentration 10 min” value is 222 ± 29 ng/mL, the “Plasma concentration 20 min” value was found to be 96 ± 6 ng/mL and the “Plasma concentration 60 min” value is on record as 35 ± 6 ng/mL.

`N[C@@]1(c2ccccc2Cl)CCC[C@@H](O)C1=O` [(2S,6S;2R,6R)-HNK, (2S,6S;2R,6R)-hydroxynorketamine]: in data set [2], the “increased spontaneous locomotor activity” value is recorded as “no effect” and the duration of anesthesia result is recorded as “no effect”. Further, the IC50 in data set [1] was < 100 nM. Moreover, in data set [5], the “relative hydrophobicity from partition coefficients” value is “significantly less lipophilic”. Moreover, in data set [8], the t1/2 is 9.5 ± 5.4 h.

For the compound `CN[C@@]1(c2ccccc2Cl)CCCCC1=O` [(R)-Ket, (R)-ketamine, reference compound], in data set [6], the “ratio of brain tissue concentration: plasma concentration 10 min” value is reported as “(4.8)”, the “Brain tissue concentration 10 min” value is recorded as 16,365 ± 1931 ng/g tissue, the “ratio of brain tissue concentration: plasma concentration 20 min” value is recorded as “(6.1)” and the “Brain tissue concentration 20 min” value was 8715 ± 4433 ng/g tissue. Further, in data set [6], the “ratio of brain tissue concentration: plasma concentration 60 min” value is on record as “(10.5)” and the “Brain tissue concentration 60 min” value turned out to be 5224 ± 3391 ng/g tissue. Besides, in data set [7], the “Plasma concentration 10 min” value is given as 3430 ± 400 ng/mL, the “Plasma concentration 20 min” value amounted to 1420 ± 103 ng/mL and the “Plasma concentration 60 min” value turned out to be 498 ± 116 ng/mL.
